# According to patent US8895585B2, “Nicotinamide derivative or salt thereof” (FUJIFILM Corporation, priority 2010, dated 2014):
# Target: T1, glutathione S-transferase (GST)-fused full-length human Syk protein (Homo sapiens, UniProt P43405)
# T1 construct: (GST)-fused full-length human Syk protein; GST (glutathione S-transferase); purchased Carna Biosciences
# Assay: Syk enzyme assay
# Format: biochemical
# Conditions: Syk enzyme assay, Test Example 1; read-out: IC50 of Syk-inhibitory activity
# In short: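 IC50 values come from a time-resolved FRET readout (615 and 665 nm) of substrate phosphorylation, measured after an EDTA stop and 1 h antibody binding. The kinase reaction ran 40 min at room temperature with 27 μM ATP and 0.4 μM biotin-peptide, following a 15 min compound preincubation with baculovirus-made GST-full-length human Syk.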
row,Structure (SMILES),IC50 [nM]
1,CCOc1cc(Nc2nc(NC3CCCCC3N)c(F)cc2C(N)=O)cc(OCC)n1 (centres unmarked) [Example 002-061],< 10
2,Cc1ccc(-c2cncc(Nc3nc(NC4CCCCC4N)c(F)cc3C(N)=O)c2)o1 (centres unmarked) [Example 002-062],< 10
3,Cc1ccc(-c2cc(Nc3nc(NC4CCCCC4N)c(F)cc3C(N)=O)ccn2)o1 (centres unmarked) [Example 002-063],< 10
4,NC(=O)c1cc(F)c(NC2CCCCC2N)nc1Nc1cccn2ccnc12 (centres unmarked) [Example 002-064],100 to 1000
5,NC(=O)c1cc(F)c(NC2CCCCC2N)nc1Nc1cncc(-c2cn[nH]c2)c1 (centres unmarked) [Example 002-069],< 10
6,NC(=O)c1cc(F)c(NC2CCCCC2N)nc1Nc1ccnc(-c2cn[nH]c2)c1 (centres unmarked) [Example 002-070],< 10
7,Cc1cc(Nc2nc(NC3CCCCC3N)c(F)cc2C(N)=O)cnc1N1CCOCC1 (centres unmarked) [Example 002-071],10 to 50
8,NC(=O)c1cc(F)c(NC2CCCCC2N)nc1Nc1cnc(N2CCOCC2)c(-c2ccoc2)c1 (centres unmarked) [Example 002-072],10 to 50
9,CN(C)c1ccc(Nc2nc(NC3CCCCC3N)c(F)cc2C(N)=O)cn1 (centres unmarked) [Example 002-074],50 to 100
10,NC(=O)c1cc(F)c(NC2CCCCC2N)nc1Nc1ccc(NCCO)nc1 (centres unmarked) [Example 002-075],10 to 50
11,COCCNc1ccc(Nc2nc(NC3CCCCC3N)c(F)cc2C(N)=O)cn1 (centres unmarked) [Example 002-076],50 to 100
12,NC(=O)c1cc(F)c(NC2CCCCC2N)nc1Nc1ccc(N2CCCC2)nc1 (centres unmarked) [Example 002-078],10 to 50
13,NC(=O)c1cc(F)c(NC2CCCCC2N)nc1Nc1ccc(OCCO)nc1 (centres unmarked) [Example 002-079],50 to 100
14,NC(=O)c1cc(F)c(NC2CCCCC2N)nc1Nc1ccc(NCCCN2CCOCC2)nc1 (centres unmarked) [Example 002-081],10 to 50
15,CCCOc1cc(Nc2nc(NC3CCCCC3N)c(F)cc2C(N)=O)ccn1 (centres unmarked) [Example 002-082],< 10
16,CC(C)COc1cc(Nc2nc(NC3CCCCC3N)c(F)cc2C(N)=O)ccn1 (centres unmarked) [Example 002-084],< 10
17,COC(C)CCOc1cc(Nc2nc(NC3CCCCC3N)c(F)cc2C(N)=O)ccn1 (centres unmarked) [Example 002-085],10 to 50
18,NC(=O)c1cc(F)c(NC2CCCCC2N)nc1Nc1ccnc(OCc2ccccc2)c1 (centres unmarked) [Example 002-086],10 to 50
19,NC(=O)c1cc(F)c(NC2CCCCC2N)nc1Nc1ccc2cc(Cl)cnc2c1 (centres unmarked) [Example 002-087],10 to 50
20,COc1ccc2ccc(Nc3nc(NC4CCCCC4N)c(F)cc3C(N)=O)cc2n1 (centres unmarked) [Example 002-088],< 10
21,COc1ccnc2cc(Nc3nc(NC4CCCCC4N)c(F)cc3C(N)=O)ccc12 (centres unmarked) [Example 002-089],10 to 50
22,COCCOc1ccc2ccc(Nc3nc(NC4CCCCC4N)c(F)cc3C(N)=O)cc2n1 (centres unmarked) [Example 002-090],< 10

# Continued, values first:
row,IC50 [nM],Structure (SMILES)
1,< 10,COCC(C)Oc1ccc2ccc(Nc3nc(NC4CCCCC4N)c(F)cc3C(N)=O)cc2n1 (centres unmarked) [Example 002-091]
2,< 10,COC(C)CCOc1ccc2ccc(Nc3nc(NC4CCCCC4N)c(F)cc3C(N)=O)cc2n1 (centres unmarked) [Example 002-092]
3,< 10,CCOCCOCCOc1ccc2ccc(Nc3nc(NC4CCCCC4N)c(F)cc3C(N)=O)cc2n1 (centres unmarked) [Example 002-093]
4,10 to 50,NC(=O)c1cc(F)c(NC2CCCCC2N)nc1Nc1cncc(C2CCCC2)c1 (centres unmarked) [Example 002-094]
5,< 10,NC(=O)c1cc(F)c(NC2CCCCC2N)nc1Nc1cncc(C2=CCCCC2)c1 (centres unmarked) [Example 002-095]
6,10 to 50,NC(=O)c1cc(F)c(NC2CCCCC2N)nc1Nc1cncc(C2CCCCC2)c1 (centres unmarked) [Example 002-096]
7,< 10,COCC(C)Oc1ccc2cc(Nc3nc(NC4CCCCC4N)c(F)cc3C(N)=O)ccc2n1 (centres unmarked) [Example 002-098]
8,< 10,COC(C)CCOc1ccc2cc(Nc3nc(NC4CCCCC4N)c(F)cc3C(N)=O)ccc2n1 (centres unmarked) [Example 002-099]
9,< 10,COc1ccc2cc(Nc3nc(NC4CCCCC4N)c(F)cc3C(N)=O)ccc2n1 (centres unmarked) [Example 002-101]
10,10 to 50,COCCOc1nccc2c(Nc3nc(NC4CCCCC4N)c(F)cc3C(N)=O)cccc12 (centres unmarked) [Example 002-102]
